From patent publication US20010039287A1, “AROMATIC SULFONE HYDROXAMIC ACID METALLOPROTEASE INHIBITOR” (priority 1997, published 2001)
Structures can show the parent of a compound that is named as a salt. Where two headings read alike, the source gives them in different places.

Key:
recombinant human MMP-13 = recombinant human MMP-13 (Homo sapiens, UniProt P45452); assay: biochemical
recombinant human MMP-1 = target: T1, recombinant human MMP-1 (Homo sapiens, UniProt P03956); assay: biochemical
T1 construct: made in house; host or cells: transfected HT-1080 cells (provided by Dr. Harold Welgus, Washington University)
T1 sequence (P03956 100-469): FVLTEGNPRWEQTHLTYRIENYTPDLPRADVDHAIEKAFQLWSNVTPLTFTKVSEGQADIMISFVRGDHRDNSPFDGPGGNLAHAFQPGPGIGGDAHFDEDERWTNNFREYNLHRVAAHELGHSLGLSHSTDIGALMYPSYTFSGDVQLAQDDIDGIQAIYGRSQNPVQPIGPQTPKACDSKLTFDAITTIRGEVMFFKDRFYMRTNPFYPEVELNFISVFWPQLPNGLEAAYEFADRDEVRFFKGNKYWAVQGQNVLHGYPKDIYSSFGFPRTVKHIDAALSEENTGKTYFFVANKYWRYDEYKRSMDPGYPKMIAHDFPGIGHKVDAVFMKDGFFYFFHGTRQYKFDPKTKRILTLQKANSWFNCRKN

recombinant human MMP-2 = target: T2, recombinant human MMP-2 (Homo sapiens, UniProt P08253); assay: biochemical
T2 sequence (P08253 110-660): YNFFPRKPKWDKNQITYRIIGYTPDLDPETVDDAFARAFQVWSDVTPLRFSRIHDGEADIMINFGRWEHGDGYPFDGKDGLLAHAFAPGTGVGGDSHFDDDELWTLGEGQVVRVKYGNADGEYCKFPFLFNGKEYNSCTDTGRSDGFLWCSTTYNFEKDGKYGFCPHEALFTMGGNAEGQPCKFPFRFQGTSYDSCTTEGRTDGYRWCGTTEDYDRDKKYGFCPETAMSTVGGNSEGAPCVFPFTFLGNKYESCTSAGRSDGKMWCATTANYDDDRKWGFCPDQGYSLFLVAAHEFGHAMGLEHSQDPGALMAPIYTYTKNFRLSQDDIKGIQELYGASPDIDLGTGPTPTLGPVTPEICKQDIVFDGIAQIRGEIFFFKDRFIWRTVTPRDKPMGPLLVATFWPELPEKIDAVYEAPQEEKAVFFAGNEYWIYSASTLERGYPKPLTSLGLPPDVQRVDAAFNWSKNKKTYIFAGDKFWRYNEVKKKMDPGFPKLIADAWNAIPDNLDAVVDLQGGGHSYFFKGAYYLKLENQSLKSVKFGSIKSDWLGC

[1] = design: AUC (0-∞): unit not given beside the values; details: for t½ Hour: Rat Intravenous 20 mpk
recombinant human MMP-9 = recombinant human MMP-9 (Homo sapiens, UniProt P14780); assay: biochemical; details: Inhibition Table B; read-out: MMP-9 IC50
[2] = Inhibition Table B, read-out: MMP-13 IC50
[3] = Inhibition Table B, read-out: MMP-1 IC50
[4] = Inhibition Table B, read-out: MMP-2 IC50

Chain of recombinant human MMP-9 (P14780 107-707 limits assumed): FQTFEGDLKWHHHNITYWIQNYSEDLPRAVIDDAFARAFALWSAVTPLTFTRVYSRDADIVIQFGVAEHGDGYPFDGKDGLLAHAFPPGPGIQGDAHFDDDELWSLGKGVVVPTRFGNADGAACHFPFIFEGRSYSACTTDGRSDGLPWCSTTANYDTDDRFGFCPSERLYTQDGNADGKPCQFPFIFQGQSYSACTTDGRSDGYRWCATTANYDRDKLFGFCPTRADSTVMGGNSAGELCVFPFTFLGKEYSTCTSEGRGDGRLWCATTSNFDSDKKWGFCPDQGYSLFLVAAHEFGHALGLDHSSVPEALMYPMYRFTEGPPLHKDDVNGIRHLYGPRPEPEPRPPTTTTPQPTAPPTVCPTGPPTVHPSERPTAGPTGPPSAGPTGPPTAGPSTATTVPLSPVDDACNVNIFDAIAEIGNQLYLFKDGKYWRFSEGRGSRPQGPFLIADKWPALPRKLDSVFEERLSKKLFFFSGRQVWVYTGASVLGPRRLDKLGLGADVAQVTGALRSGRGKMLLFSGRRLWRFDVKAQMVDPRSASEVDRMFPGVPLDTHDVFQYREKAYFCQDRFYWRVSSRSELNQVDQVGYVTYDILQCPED

SMILES | t½ Hour [1] [h] | IC50 (recombinant human MMP-13; [2]) [nM] | IC50 (recombinant human MMP-1; [3]) [nM] | IC50 (recombinant human MMP-2; [4]) [nM] | IC50 (recombinant human MMP-9) [nM] | other results
CC(=O)N1CCC(C(=O)NO)(S(=O)(=O)c2ccc(Oc3ccccc3)cc2)CC1 [Example 12] |  |  |  |  |  | IC50 (recombinant human MMP-13): < 0.1 nM; IC50 (recombinant human MMP-1): 464 nM; IC50 (recombinant human MMP-2; MMP-2 IC50 (nM)): < 0.1 nM; AUC (0-∞) ([1]; rat, in vivo): 22.11; t1/2 ([1]; rat, in vivo): 0.86 h; Blood Level @ 3 min ([1]; rat, in vivo, iv, 20 mg/kg): 73.54 µg/mL
Cc1cc(Oc2ccc(S(=O)(=O)C3(C(=O)NO)CCNCC3)cc2)ccc1Cl.Cl [Example 79] | 1.82 |  |  |  |  | 
O=C(O)CN1CCC(C(=O)NO)(S(=O)(=O)c2ccc(Oc3ccc(Cl)cc3)cc2)CC1 [Example 88, 4-[[4-(4-chlorophenoxy)-phenyl]sulfonyl]-4-[(hydroxyamino)-carbonyl]-1-piperidineacetic Acid, Monohydrochloride] |  | 0.2 | 1100 | 0.2 | 0.5 | 
O=C(NO)C1(S(=O)(=O)c2ccc(Oc3ccc(Cl)cc3)cc2)CCN(CCN2CCOCC2)CC1 [Example 89, 4-[[4-(4-chlorophenoxy)-phenyl]sulfonyl]-N-hydroxy-1-[2-(4-morpholinyl)ethyl]-4-piperidine-carboxamide, Dihydrochloride] |  | 0.25 | 1200 | 0.15 | 0.4 | 
O=C(NO)C1(S(=O)(=O)c2ccc(-c3ccc(Cl)cc3)cc2)CCNCC1 [Example 91, 4-[(4′-chloro[1,1′-biphenyl]-4-yl)sulfonyl]-N-hydroxy-4-piperidinecarboxamide, Monohydrochloride] |  | 2.1 | 1800 | 1.5 | 40 | 
O=C(NO)C1(S(=O)(=O)c2ccc(Oc3ccccc3)cc2)CCOCC1 [Example 94, Tetrahydro-N-hydroxy-4-[(4-phenoxyphenyl)sulfonyl]-2H-pyran-4-carboxamide] | 1.71 | < 0.1 |  | < 0.1 |  | 
Cc1ccc(Oc2ccc(S(=O)(=O)C3(C(=O)NO)CCOCC3)cc2)cc1C [Example 96, 4-[[4-(3,4-dimethyl-phenoxy)phenyl]ssulfonyl]tetrahydro-N-hydroxy-2H-pyran-4-carboxamide] |  | 0.3 | 5000 | 0.2 | 1.3 | 
O=C(NO)C1(S(=O)(=O)c2ccc(Oc3ccc(Cl)cc3)cc2)CCOCC1 [Example 100, 4-[[4-(4-chlorophenoxy)-phenyl]sulfonyl]-tetrahydro-N-hydroxy-2H-pyran-4-carboxamide] | 1.50 |  |  |  |  | 
O=C(O)CCc1ccc(Oc2ccc(S(=O)(=O)C3(C(=O)NO)CCOCC3)cc2)cc1 [Example 105, 4-[4-[[tetrahydro-4-[(hydroxyamino)carbonyl]-2H-pyran-4-yl]sulfonyl]phenoxy]benzenepropanoic Acid] |  | 0.85 | > 10000 | 3500 | 114 | 
O=C(NO)C1(S(=O)(=O)c2ccc(Oc3ccccc3)cc2)CCS(=O)(=O)CC1 [Example 110] |  | 0.5 | 2700 | 0.4 | 10 | 
O=C(NO)C1(S(=O)(=O)c2ccc(Sc3ccc(O)cc3)cc2)CCSCC1 [Example 114] |  | 0.4 | 3000 | 0.65 | 31.6 | 
NCCc1ccc(Oc2ccc(S(=O)(=O)C3(C(=O)NO)CCSCC3)cc2)cc1 [Example 116, tetrahydro-N-hydroxy-4-[[4-[4-tyramine)phenoxy]phenyl] Sulfonyl 2H-thiopyran-4-carboxamide] |  | 5.5 | 2350 | 2 | 15.3 | 
O=C(NO)C1(S(=O)(=O)c2ccc(Sc3ccncc3)cc2)CCSCC1 [Example 119, tetrahydro-N-hydroxy-4-[[4-(4-pyridinylthio)-phenyl]sulfonyl]-2H-thiopyran-4-carboxamide, Monohydrochloride] |  | 1.7 | > 10000 | 1.5 | 30 | 
CC(=O)N1CCN(c2ccc(Oc3ccc(S(=O)(=O)C4(C(=O)NO)CCOCC4)cc3)cc2)CC1 [Example 123, 4-[[4-[4-(4-acetyl-1-piperazinyl)phenoxy]phenyl]sulfonyl]-tetrahydro-N-hydroxy-2H-pyran-4-carboxamide, Trifluoroacetic Acid Salt] |  | 1.8 | 3600 | 1.8 | 27.8 | 
O=C(NO)C1(S(=O)(=O)c2ccc(Oc3ccc(SC(F)(F)F)cc3)cc2)CCOCC1 [Example 382, Tetrahydro-N-hydroxy-4-[[4-[4-[(trifluoromethyl)thio]phenoxy]phenyl]-sulfonyl]-2H-pyran-4-carboxamide] | 1.71 |  |  |  |  | 
O=C(NO)C1(S(=O)(=O)c2ccc(Oc3ccc(C(F)(F)F)cc3)cc2)CCN(CCN2CCOCC2)CC1 [Example 388, N-hydroxy-1-[2-(4-morpholinyl)-ethyl]-4-[[4-[4-(trifluoromethyl)phenoxy]-phenyl]sulfonyl]-4-piperidinecarboxamide, Dihydrochloride] | 0.94 |  |  |  |  | 
O=C(NO)C1(S(=O)(=O)c2ccc(Oc3ccc(C(F)(F)F)cc3)cc2)CCN(Cc2cccnc2)CC1 [Example 390, N-hydroxy-1-(3-pyridinylmethyl)-4-[[4-[4-trifluoromethyl)phenoxy]phenyl]-sulfonyl]-4-piperidinecarboxamide, Dihydrochloride] | 1.50 |  |  |  |  | 
O=C(NO)C1(S(=O)(=O)c2ccc(Oc3ccc(C(F)(F)F)cc3)cc2)CCN(Cc2ccccn2)CC1 [Example 391, N-hydroxy-1-(2-pyridinylmethyl)-4-[[4-[4-(trifluoromethyl)phenoxy]phenyl]-sulfonyl]-4-piperidinecarboxamide, Dihydrochloride] | 1.45 |  |  |  |  | 
Cl.O=C(NO)C1(S(=O)(=O)c2ccc(Oc3ccc4c(c3)OCCO4)cc2)CCN(C2CC2)CC1 [Example 408, 1-cyclopropyl-4-[[4-[(2,3-dihydro-1,4-benzodioxin-6-yl)oxy]phenyl]-sulfonyl]-N-hydroxy-4-piperidine-carboxamide, Monohydrochloride] | 3.30 |  |  |  |  | 
Cl.O=C(NO)C1(S(=O)(=O)c2ccc(Oc3ccc(OC(F)(F)F)cc3)cc2)CCNCC1 [Example 410, N-hydroxy-4-[[4-[(trifluoromethoxy)phenoxy]phenyl]sulfonyl]-4-piperidinecarboxamide, Monohydrochloride] | 1.78 |  |  |  |  | 
C#CCN1CCC(C(=O)NO)(S(=O)(=O)c2ccc(Oc3ccc(C(C)C)cc3)cc2)CC1.Cl [Example 414, N-hydroxy-4-[[4-[4-(1-methylethyl)phenoxy]phenyl]sulfonyl]-1-(2-propynyl)-4-piperidinecarboxamide, Monohdyrochloride] | 0.73 |  |  |  |  | 
COCCN1CCC(C(=O)NO)(S(=O)(=O)c2ccc(Oc3ccc(OC(F)(F)F)cc3)cc2)CC1.Cl [Example 416, N-hydroxy-1-(2-methoxyethyl)-4-[[4-[4-(trifluoromethoxy)phenoxy]phenyl]sulfonyl}-4-piperidinecarboxamide, Monohydrochloride] | 2.94 |  |  |  |  | 
COCCN1CCC(C(=O)NO)(S(=O)(=O)c2ccc(Oc3ccc(C(F)(F)F)cc3)cc2)CC1.Cl [Example 418, N-hydroxy-1-(2-methoxyethyl)-4-[[4-[4-(trifluoromethyl)-phenoxy]phenyl]sulfonyl}-4-piperidinecarboxamide, Monohydrochloride] | 2.42 |  |  |  |  | 
Cl.O=C(NO)C1(S(=O)(=O)c2ccc(Oc3ccc(C(F)(F)F)cc3)cc2)CCN(C2CC2)CC1 [Example 427, 1-cyclopropyl-N-hydroxy-4-[[4-[4-(trifluoromethyl)phenoxy]phenyl]sulfonyl]-4-piperidinecarboxamide, Monohydrochloride] | 2.85 |  |  |  |  | 
CCN1CCC(C(=O)NO)(S(=O)(=O)c2ccc(OCc3ccc(C(F)(F)F)cc3)cc2)CC1.Cl [Example 438, 1-ethyl-N-hydroxy-4-[[4-[[4-[trifluoromethyl)phenyl]methoxy]-phenyl]sulfonyl]-4-piperidine-carboxamide, Monohydrochloride] | 2.14 |  |  |  |  | 
